Tests used:
[1] = test system: phage T7; test: Survivor population of phage T7 after sanitizer treatment; format: cell-based; settings: 2 min, 4° C.
[2] = test system: E. coli O157:H7 cells; format: cell-based, Escherichia coli O157:H7

Row | Structure (SMILES) | inactivation of phage T7 ([1]; PAA at 80 ppm, 9 log inoculum level) | complete inactivation of phages ([1]; PAA up to 80 ppm, 9 log inoculum level) | further inactivation of E. coli O157:H7 with an increase of PAA concentration [2] | inactivation of E. coli O157:H7 cells [2] [log] | survivors of E. coli O157:H7 [2] | complete inactivation of inoculated phages ([1]; lowest concentration tested, 2 ppm of free chlorine)
1 | CC(=O)OO [PAA, peracetic acid] | more than 6 log | complete inactivation of phages (9 log inoculum level) was not observed | no significant inactivation | 2 | around 4 log | 
2 | OCl [chlorine, sodium hypochlorite] |  |  |  |  |  | complete inactivation of inoculated phages was observed

From patent US20220018836A1, “NON-LIVING SURROGATE INDICATORS AND METHODS FOR SANITATION VALIDATION” (priority 2018, published 2022)
